Assays:
[1] = for Triple point temperature: Crystal, DSC; for viscosity / mass density: 100 kPa, Liquid; for viscosity: Concentric cylinders viscometry; for mass density: Vibrating tube method
[2] = refractive index (Na D-line) (dimensionless); conditions: 100 kPa, Liquid, Standard Abbe refractometry

CCCC[P+](CCCC)(CCCC)CCCC.O=S(=O)([O-])CC(O)CNC(CO)(CO)CO
Conditions	Triple point temperature [K]
[1]	369.15

C[N+](C)(C)CCO.O=S(=O)([O-])CC(O)CN1CCOCC1 (stereo not drawn)
Conditions	mass density, [1] [kg/m3]	refractive index, [2]	viscosity, [1] [mPa·s]
308.15 K	1235.3	1.49778	49189
313.15 K	1232	1.49658	28090
318.15 K	1228.7	1.49531	16897
323.15 K	1225.6	1.49453	10898
328.15 K	1222.5	1.49323	6933.2
333.15 K	1219.5	1.49185	4600.3
338.15 K	1216.5	1.48995	3099.4
343.15 K	1213.5	1.48831	2158.8
348.15 K	1211.6	1.48671	1545.5
353.15 K	1209.7	1.4852	1122.3

CCCC[P+](CCCC)(CCCC)CCCC.O=S(=O)([O-])CC(O)CN1CCOCC1 [tetrabutylphosphonium 2-hydroxy-3-morpholinopropanesulfonate]
Conditions	mass density, [1] [kg/m3]	refractive index, [2]	viscosity, [1] [mPa·s]
288.15 K	1062.9	1.4959	22869
293.15 K	1059.9	1.49447	12430
298.15 K	1056.8	1.49299	7312.9
303.15 K	1053.7	1.49152	4493.6
308.15 K	1050.5	1.48999	2859.8
313.15 K	1047.5	1.48836	1889.2
318.15 K	1044.4	1.4866	1277
323.15 K	1041.3	1.48573	886.7
328.15 K	1038.2	1.4841	630.4
333.15 K	1035.1	1.48239	457.8
338.15 K	1032.1	1.48069	339.2
343.15 K	1029.1	1.47908	255.6
348.15 K	1026.2	1.47761	195.8
353.15 K	–	1.47622	152.3

C[N+](C)(C)CCO.O=S(=O)([O-])CC(O)CNC1CCCCC1 (stereo not drawn)
Conditions	Triple point temperature [K]
[1]	365.15

C[N+](C)(C)CCO.O=S(=O)([O-])CCN(CCO)CCO
Conditions	mass density, [1] [kg/m3]	refractive index, [2]	viscosity, [1] [mPa·s]
293.15 K	1248	–	33236
298.15 K	1244.8	1.50047	20518
303.15 K	1241.8	1.49937	13056
308.15 K	1238.9	1.49826	8631.6
313.15 K	1236.1	1.49716	5848.4
318.15 K	1233.3	1.49602	4045.8
323.15 K	1230.5	1.49476	2861
328.15 K	1227.7	1.49317	2061.7
333.15 K	1224.9	1.49148	1526.8
338.15 K	1222.2	1.49052	1136.6
343.15 K	1219.5	1.48921	858.1
348.15 K	1216.8	1.48749	658.8
353.15 K	1214.1	1.48633	512.7

CCCC[P+](CCCC)(CCCC)CCCC.O=S(=O)([O-])CCN(CCO)CCO
Conditions	mass density, [1] [kg/m3]	refractive index, [2]	viscosity, [1] [mPa·s]
288.15 K	1066.8	1.49778	41313
293.15 K	1063.9	1.4964	24078
298.15 K	1061	1.49502	14082
303.15 K	1058.1	1.49365	8504.9
308.15 K	1055.3	1.49333	5315.8
313.15 K	1052.4	1.49198	3370.9
318.15 K	1049.6	1.49061	2199.4
323.15 K	1046.8	1.48921	1356.9
328.15 K	1044	1.48744	871
333.15 K	1041.2	1.4859	611.8
338.15 K	1038.4	1.48437	458.9
343.15 K	1035.6	1.48287	352.3
348.15 K	1032.8	1.48142	273.6
353.15 K	1030.1	1.48003	214.5

Reference: the NIST ThermoML archive (doi:10.1021/acs.jced.5b00936)
